Experimental data as given in ChEMBL document CHEMBL1138108, “Syntheses and evaluation of novel fatty acid-second-generation taxoid conjugates as promising anticancer agents” (Bioorg Med Chem Lett, 2006).
The source made the active and inactive calls. The rule behind the calls is not given here.

Legend:
MCF7S = test: Cytotoxicity against human mammary tumor cell line MCF7-S; format: functional, cell-based
MCF7R = test: Cytotoxicity against human mammary tumor cell line MCF7-R; format: functional, cell-based
A121 = test: Efficacy against Pgp- human ovarian tumor xenograft A121 in SCID mice at 90 mg/kg, iv
DLD-1 [1] = test: Efficacy against Pgp+ human colon tumor xenograft DLD1 in SCID mice at 75 mg/kg, iv; format: functional, organism-based; design: dose 75 mg/kg
DLD-1 [2] = test: Efficacy against Pgp+ human colon tumor xenograft DLD1 in SCID mice at 240 mg/kg, iv; format: functional, organism-based; design: dose 240 mg/kg

Structure (SMILES)	IC50 (MCF7S) [nM]	IC50 (MCF7R) [nM]	Activity (A121)	Activity (DLD-1 [1])	Activity (DLD-1 [2])
COC(=O)O[C@H]1C(=O)[C@@]2(C)C([C@H](OC(=O)c3ccccc3)[C@]3(O)C[C@H](OC(=O)[C@H](O)[C@H](C=C(C)C)NC(=O)OC(C)(C)C)C(C)=C1C3(C)C)[C@]1(OC(C)=O)CO[C@@H]1C[C@@H]2O (some centres not stated)	0.14	9.7	–	–	–
CC(=O)O[C@@]12CO[C@@H]1C[C@H](O)[C@@]1(C)C(=O)[C@H](O)C3=C(C)[C@@H](OC(=O)[C@H](O)[C@@H](NC(=O)OC(C)(C)C)c4ccccc4)C[C@@](O)([C@@H](OC(=O)c4ccccc4)[C@H]21)C3(C)C [DOCETAXEL]	1	723	–	–	–
CC/C=C\C/C=C\C/C=C\C/C=C\C/C=C\C/C=C/CCC(=O)O[C@@H](C(=O)O[C@H]1C[C@@]2(O)[C@@H](OC(=O)c3ccccc3)C3[C@](C)(C(=O)[C@H](OC(=O)N(C)C)C(=C1C)C2(C)C)[C@@H](O)C[C@H]1OC[C@@]31OC(C)=O)[C@H](C=C(C)C)NC(=O)OC(C)(C)C (some centres not stated)	–	–	Active	–	–
CCC(=O)O[C@H]1C(=O)[C@@]2(C)[C@H]([C@H](OC(=O)c3ccccc3)[C@]3(O)C[C@H](OC(=O)[C@H](O)[C@H](CC(C)C)NC(=O)OC(C)(C)C)C(C)=C1C3(C)C)[C@]1(OC(C)=O)CO[C@@H]1C[C@@H]2O	0.35	5.1	–	–	–
CC(=O)O[C@H]1C(=O)[C@@]2(C)[C@H]([C@H](OC(=O)c3ccccc3)[C@]3(O)C[C@H](OC(=O)[C@H](O)[C@@H](NC(=O)c4ccccc4)c4ccccc4)C(C)=C1C3(C)C)[C@]1(OC(C)=O)CO[C@@H]1C[C@@H]2O [PACLITAXEL]	1.7	550	–	–	–
CC(=O)O[C@@]12CO[C@@H]1C[C@H](O)[C@@]1(C)C(=O)[C@H](OC(=O)N(C)C)C3=C(C)[C@@H](OC(=O)[C@H](O)[C@H](C=C(C)C)NC(=O)OC(C)(C)C)C[C@@](O)([C@@H](OC(=O)c4ccccc4)C12)C3(C)C (some centres not stated)	0.13	7.4	–	–	–
CC(=O)O[C@@]12CO[C@@H]1C[C@H](O)[C@@]1(C)C(=O)[C@H](OC(=O)C3CC3)C3=C(C)[C@@H](OC(=O)[C@H](O)[C@H](CC(C)C)NC(=O)OC(C)(C)C)C[C@@](O)([C@@H](OC(=O)c4ccccc4)C12)C3(C)C (some centres not stated)	0.51	7.9	–	–	–
CC/C=C\C/C=C\C/C=C\CCCCCCCC(=O)O[C@@H](C(=O)O[C@H]1C[C@@]2(O)[C@@H](OC(=O)c3ccccc3)C3[C@](C)(C(=O)[C@H](OC(=O)CC)C(=C1C)C2(C)C)[C@@H](O)C[C@H]1OC[C@@]31OC(C)=O)[C@H](C=C(C)C)NC(=O)OC(C)(C)C (some centres not stated)	–	–	–	Active	–
CC(=O)O[C@@]12CO[C@@H]1C[C@H](O)[C@@]1(C)C(=O)[C@H](OC(=O)C3CC3)C3=C(C)[C@@H](OC(=O)[C@H](O)[C@H](C=C(C)C)NC(=O)OC(C)(C)C)C[C@@](O)([C@@H](OC(=O)c4ccccc4)[C@H]21)C3(C)C	0.2	3.9	–	–	Active
CC/C=C\C/C=C\C/C=C\C/C=C\C/C=C\C/C=C/CCC(=O)O[C@@H](C(=O)O[C@H]1C[C@@]2(O)[C@@H](OC(=O)c3ccccc3)C3[C@](C)(C(=O)[C@H](OC(C)=O)C(=C1C)C2(C)C)[C@@H](O)C[C@H]1OC[C@@]31OC(C)=O)[C@@H](NC(=O)c1ccccc1)c1ccccc1 (some centres not stated)	–	–	–	–	inactive
CCCCC/C=C\C/C=C\CCCCCCCC(=O)O[C@@H](C(=O)O[C@H]1C[C@@]2(O)[C@@H](OC(=O)c3ccccc3)C3[C@](C)(C(=O)[C@H](OC(=O)CC)C(=C1C)C2(C)C)[C@@H](O)C[C@H]1OC[C@@]31OC(C)=O)[C@H](C=C(C)C)NC(=O)OC(C)(C)C (some centres not stated)	–	–	–	Active	–
CCC(=O)O[C@H]1C(=O)[C@@]2(C)[C@H]([C@H](OC(=O)c3ccccc3)[C@]3(O)C[C@H](OC(=O)[C@H](O)[C@H](C=C(C)C)NC(=O)OC(C)(C)C)C(C)=C1C3(C)C)[C@]1(OC(C)=O)CO[C@@H]1C[C@@H]2O	0.18	4	–	–	Active
